Assay results as given in publication PMC6379498, “Radiosynthesis and in vivo evaluation of ^11C-labeled BMS-193885 and its desmethyl analog as PET tracers for neuropeptide Y1 receptors” (EJNMMI Radiopharmacy and Chemistry, 2019).

How the values were obtained:
[1] = Metabolite analysis of mouse plasma after co-injection of [^11C]1 with 1; format: in vivo, mice; details: 30 min after co-injection of [^11C]1 with 1 (50 mg/kg), radio- and UV-HPLC
Experimental: In addition, the effects of co-injection of [^11C]1 with 1 on the results of metabolite analyses of plasma were investigated. [^11C]1 (26-30 MBq/0.38-0.45 nmol) and a solution of 1 (50 mg/kg b.w. in water containing 20% Tween 80) were intravenously co-injected into mice (aged 7-9 weeks, weighing 35-39 g, n = 4). Mice were euthanized by cervical dislocation at 30 min post-injection. Blood samples taken by heart puncture were collected into heparinized syringes. The samples were centrifuged at 13,000×g (Model 5500, KUBOTA, Tokyo, Japan) for 3 min at 4 °C to obtain plasma (0.2 mL). Plasma samples were added to equivalent volumes of acetonitrile, and mixtures were centrifuged at 20,000×g for 2 min. The precipitate was added to 0.2 mL of acetonitrile, and this mixture was centrifuged at 20,000×g for 2 min to obtain the supernatant. The mixed supernatant was added to 0.2 mL of water, and this solution was loaded into the injector loop. HPLC analysis was performed using the abovementioned radio-HPLC system for metabolite analysis, and also a […] column (5 μm mesh, 10 mm i.d. × 150 mm length; YMC, Kyoto, Japan). Elution was performed using a mixture of 90% acetonitrile solution and 0.1 mol/L ammonium acetate solution (45:55, vol./vol.). The flow rate was 4 mL/min.

[2] = tested on: P-gp and BCRP; assay: Effect of pretreatment with elacridar on tissue distribution of radioactivity; format: in vivo, mice; details: 30 min post-injection, elacridar 5 mg/kg 20-30 min before tracer, vs control
Experimental: The effects of pretreatment with 1 (BMS-193885) or the ABC transporter-inhibitor elacridar (inhibiting drug efflux transporters, mainly P-gp and BCRP) on tissue distributions of radioactivity were investigated. [^11C]1 (7.1–14 MBq/0.079–0.23 nmol) or [^11C]2 (6.0 MBq/0.16 nmol) was intravenously injected into mice (aged 7–8 weeks, weighing 32–36 g, n = 4–8) 20–30 min after the administration of the solution of 1 (10 mg/kg body weight [b.w.]/0.1 mL water containing 20% Tween 80), elacridar (5 mg/kg b.w./0.1 mL water), or a control fluid (0.1 mL water). Mice were euthanized by cervical dislocation at 30 min post-injection.
Blood samples were collected by heart puncture. Tissues were dissected and weighed. The radioactivity in samples was measured with an automatic gamma counter (Wizard 3′′ 1480, PerkinElmer, Waltham, MA, USA). The tissue uptake of radioactivity was expressed as the percentage of injected dose detected per gram of sample (%ID/g, tissue radioactivity/g tissue/injected radioactivity × 100).

| Compound | Metabolites found in mouse plasma [1] | Change of radioactivity level in blood by pretreatment with elacridar ([2]; blood) | Change of radioactivity level in brain by pretreatment with elacridar [2] | Change of radioactivity level in heart by pretreatment with elacridar [2] | Change of radioactivity level in kidney by pretreatment with elacridar [2] | Change of radioactivity level in lung by pretreatment with elacridar ([2]; lung) | Change of radioactivity level in muscle by pretreatment with elacridar ([2]; muscle) | Change of radioactivity level in liver by pretreatment with elacridar ([2]; liver) |
| --- | --- | --- | --- | --- | --- | --- | --- | --- |
| COC(=O)C1=C(C)NC(C)=C(C(=O)OC)C1c1cccc(NC(=O)NCCCN2CCC(c3cccc(O[11CH3])c3)CC2)c1 [[^11C]1] | rapidly metabolized into its unlabeled desmethyl analog 2 and radiolabeled components | significantly increased | significantly increased | significantly increased | significantly decreased | significantly increased | significantly increased | – |
| COC(=O)C1=C(C)NC(C)=C(C(=O)OC)C1c1cccc(N[11C](=O)NCCCN2CCC(c3cccc(O)c3)CC2)c1 [[^11C]2] | – | – | not increased | significantly increased | significantly decreased | – | – | significantly increased |
